“And” between values parts separate entries of the source, which are not always exact repeats. Equal entries are not always repeated. Where two headings read alike, the source gives them in different places.
Tests used:
[1] = system: Ophiocordyceps sp. BRM1 eIF4A WT; assay: In vitro translation in RRL with complex-preformed mRNAs; assay type: biochemical; settings: reporter mRNA with polypurine motifs preincubated with eIF4A and 9.1 µM RocA, free RocA removed; Figure 3B
Procedure: (§1) The DNA fragments PCR-amplified from psiCHECK2−7×AGAGAG motifs or psiCHECK2-CAA repeats ([Iwasaki et al., 2016]) were used as a template for in vitro transcription with a T7-Scribe Standard RNA IVT Kit ([…]). RNA was capped and poly(A) tailed with a ScriptCap m^7G Capping System, a ScriptCap 2′-O-Methyltransferase Kit, and an A-Plus Poly(A) Polymerase Tailing Kit ([…]).
(§2) Then, 4 µl of complex-preformed mRNA was incubated with 50% RRL (Promega) in a 10 µl reaction volume for 1 hr at 30°C, according to the manufacturer’s instructions. The fluorescence signal was detected using the Renilla-Glo Luciferase Assay System (Promega) and measured with the GloMax Navigator System (Promega). In the control experiments, instead of recombinant eIF4A proteins, storage buffer was used. Moreover, recombinant eIF4A proteins were added to the G-25 flowthrough solution in place of the storage buffer.

[2] = system: Ophiocordyceps sp. BRM1 eIF4A Gly172His; assay: as above; assay type: biochemical; settings: reporter mRNA with polypurine motifs preincubated with eIF4A and 9.1 µM RocA, free RocA removed; Figure 3B
Procedure: as §1, §2

[3] = target: Ophiocordyceps sp. BRM1 eIF4A iso4 Gly172Phe; assay: Fluorescence polarization assay, FAM-labeled [AG]10 RNA and recombinant eIF4A; assay type: binding; settings: for Kd: [AG]10 10 nM, compound 50 µM, read-out: Kd between eIF4A protein and RNA
Procedure: (§3) The fluorescence polarization assay was performed as previously described ([Chen et al., 2021]). […] After incubation at room temperature for 30 min, the mixture was transferred to a black 384-well microplate (Corning), and the fluorescence polarization was measured by an Infinite F-200 PRO (Tecan). Under ADP + Pi conditions, 1 mM ADP (Fujifilm Wako Chemicals) and 1 mM Na2HPO4 were used as substitutes for AMP-PNP. The data were fitted to the Hill equation to calculate Kd values and visualized by Igor Pro v8.01 (WaveMetrics).

[4] = target: Ophiocordyceps sp. BRM1 eIF4A iso4 WT Gly172; assay: as above; assay type: binding; settings: for Kd: [AG]10 10 nM, compound 50 µM, read-out: Kd between eIF4A protein and RNA; for fluorescence polarization, Mean / fluorescence polarization, replicates: [AG]10, ADP + Pi, RocA 50 µM
Procedure: as §3

[5] = [AG]10, ADP + Pi, RocA 50 µM, protein 0.01 μM
[6] = [AG]10, ADP + Pi, RocA 50 µM, protein 0.05 μM
[7] = [AG]10, ADP + Pi, RocA 50 µM, protein 0.075 μM
[8] = [AG]10, ADP + Pi, RocA 50 µM, protein 0.1 μM
[9] = [AG]10, ADP + Pi, RocA 50 µM, protein 0.5 μM
[10] = [AG]10, ADP + Pi, RocA 50 µM, protein 0.75 μM
[11] = [AG]10, ADP + Pi, RocA 50 µM, protein 1 μM
[12] = [AG]10, ADP + Pi, RocA 50 µM, protein 5 μM
[13] = [AG]10, ADP + Pi, RocA 50 µM, protein 7.5 μM
[14] = [AG]10, ADP + Pi, RocA 50 µM, protein 10 μM
[15] = [AG]10, ADP + Pi, RocA 50 µM, protein 25 μM
[16] = [AG]10, ADP + Pi, RocA 50 µM, protein 50 μM
[17] = [AG]10 RNA, AMP-PNP, RocA, protein concentration 0.01 μM
[18] = [AG]10 RNA, AMP-PNP, RocA, protein concentration 0.05 μM
[19] = [AG]10 RNA, AMP-PNP, RocA, protein concentration 0.075 μM
[20] = [AG]10 RNA, AMP-PNP, RocA, protein concentration 0.75 μM
[21] = [AG]10 RNA, AMP-PNP, RocA, protein concentration 5 μM
[22] = [AG]10 RNA, AMP-PNP, RocA, protein concentration 7.5 μM
[23] = [AG]10 RNA, AMP-PNP, RocA, protein concentration 10 μM
[24] = [AG]10 RNA, AMP-PNP, RocA, protein concentration 25 μM
[25] = [AG]10 RNA, AMP-PNP, RocA, protein concentration 50 μM

COc1ccc([C@@]23Oc4cc(OC)cc(OC)c4[C@]2(O)[C@H](O)[C@H](C(=O)N(C)C)[C@H]3c2ccccc2)cc1 [RocA, rocaglamide A]
translation of complex-preformed mRNA in RRL [1]: could not alter translation
translation of complex-preformed mRNA in RRL [2]: could act as a translation repressor
Kd ([3]; ADP + Pi (1 mM each)): 270 ± 50 nM
Kd ([3]; AMP-PNP 1 mM): 53 ± 23 nM
fluorescence polarization, Mean [3, 5]: -0.0929
fluorescence polarization, replicates [3, 5]: -0.1366
fluorescence polarization, Mean [3, 6]: -0.112
fluorescence polarization, replicates [3, 6]: -0.1366
fluorescence polarization, Mean [3, 7]: -0.05465
fluorescence polarization, replicates [3, 7]: -0.005465
fluorescence polarization, Mean [3, 8]: 0.05191
fluorescence polarization, replicates [3, 8]: 0.0929 and 0.002732
fluorescence polarization, Mean [3, 9]: 0.3142
fluorescence polarization, replicates [3, 9]: 0.3142 and 0.2486
fluorescence polarization, Mean [3, 10]: 0.3661
fluorescence polarization, replicates [3, 10]: 0.429 and 0.306
fluorescence polarization, Mean [3, 11]: 0.4044
fluorescence polarization, replicates [3, 11]: 0.3552 and 0.429 (2×)
fluorescence polarization, Mean [3, 12]: 0.4399
fluorescence polarization, replicates [3, 12]: 0.4781 and 0.4208 (2×)
fluorescence polarization, Mean [3, 13]: 0.5328
fluorescence polarization, replicates [3, 13]: 0.5519 and 0.5027
fluorescence polarization, Mean [3, 14]: 0.5055
fluorescence polarization, replicates [3, 14]: 0.4372 and 0.5109 and 0.5683
fluorescence polarization, Mean [3, 15]: 0.5301
fluorescence polarization, replicates [3, 15]: 0.4863
fluorescence polarization, Mean [3, 16]: 0.5273
fluorescence polarization, replicates [3, 16]: 0.5765 and 0.5519 and 0.4536
Fluorescence polarization, Replicate 1-3 [3, 17]: 0.3525 and 0.2213 and 0.04098
fluorescence polarization, Mean [3, 17]: 0.2049
Fluorescence polarization, Replicate 1-3 [3, 18]: 0.3852 and 0.2951 and 0.2787
fluorescence polarization, Mean [3, 18]: 0.3197
Fluorescence polarization, Replicate 1-3 [3, 19]: 0.3197 and 0.3607 and 0.3361
fluorescence polarization, Mean [3, 19]: 0.3388
Fluorescence polarization, Replicate 1-3 ([3]; [AG]10 RNA, AMP-PNP, RocA, protein concentration 0.5 μM): 0.8689 and 0.8197
Fluorescence polarization, Replicate 1-3 [3, 20]: 0.8115 and 0.7295
fluorescence polarization, Mean [3, 20]: 0.7514
Fluorescence polarization, Replicate 1-3 ([3]; [AG]10 RNA, AMP-PNP, RocA, protein concentration 1 μM): 0.8279 and 0.8934
Fluorescence polarization, Replicate 1-3 [3, 21]: 0.8197 and 0.877
fluorescence polarization, Mean [3, 21]: 0.8661
Fluorescence polarization, Replicate 1-3 [3, 22]: 0.9262 and 0.8361 and 0.8525
fluorescence polarization, Mean [3, 22]: 0.8716
Fluorescence polarization, Replicate 1-3 [3, 23]: 0.8689 and 0.8525 and 0.8033
fluorescence polarization, Mean [3, 23]: 0.8415
Fluorescence polarization, Replicate 1-3 [3, 24]: 0.8607 and 0.9262 and 0.877
fluorescence polarization, Mean [3, 24]: 0.888
Fluorescence polarization, Replicate 1-3 [3, 25]: 0.9344 and 0.9672 and 0.9098
fluorescence polarization, Mean [3, 25]: 0.9372
Kd ([4]; ADP + Pi (1 mM each)): ~17000 nM and 17000 nM
Kd ([4]; AMP-PNP 1 mM): 230 ± 50 nM
fluorescence polarization, Mean ([4]; protein 0.01 μM): -0.01093
fluorescence polarization, replicates ([4]; protein 0.01 μM): 0.0929
fluorescence polarization, Mean ([4]; protein 0.05 μM): -0.1393
fluorescence polarization, replicates ([4]; protein 0.05 μM): -0.2186
fluorescence polarization, Mean ([4]; protein 0.075 μM): -0.09563
fluorescence polarization, replicates ([4]; protein 0.075 μM): -0.03825 and -0.2268
fluorescence polarization, Mean ([4]; protein 0.1 μM): -0.08743
fluorescence polarization, replicates ([4]; protein 0.1 μM): -0.09563
fluorescence polarization, Mean ([4]; protein 0.5 μM): -0.2951
fluorescence polarization, replicates ([4]; protein 0.5 μM): -0.2432 and -0.2923 and -0.3497
fluorescence polarization, Mean ([4]; protein 0.75 μM): -0.347
fluorescence polarization, replicates ([4]; protein 0.75 μM): -0.3169 and -0.3661 and -0.3579
fluorescence polarization, Mean ([4]; protein 1 μM): -0.2568
fluorescence polarization, replicates ([4]; protein 1 μM): -0.1858 and -0.2104 and -0.3743
fluorescence polarization, Mean ([4]; protein 5 μM): -0.112
fluorescence polarization, replicates ([4]; protein 5 μM): -0.1448 and -0.1612
fluorescence polarization, Mean ([4]; protein 7.5 μM): -0.1202
fluorescence polarization, replicates ([4]; protein 7.5 μM): -0.08743
fluorescence polarization, Mean ([4]; protein 10 μM): 0.002732
fluorescence polarization, replicates ([4]; protein 10 μM): -0.005465
fluorescence polarization, Mean ([4]; protein 25 μM): 0.2951
fluorescence polarization, replicates ([4]; protein 25 μM): 0.265
